The test system of experiment [1] is human placental vessel explants (capillaries sprouts). The experiment is described as follows: In vitro cultures of human placental vessels, sprouting index by image analysis. Format: cell-based. The following applies: 10^−6 M, treated every two days for 28 days. Here is the method:
The experimental procedure described by Brown et al., (Laboratory Investigation 1996, 75: 539–555) was followed and modified in the present study. Immediately after the spontaneous delivery, the placenta was collected in sterile conditions and superficial blood vessels, approximately […] in diameter and from 1 to 5 cm in length, were excised. Vessel explants were placed in phosphate buffered saline (PBS) solution containing […] of amphotericin B and 50 μg/mL of gentamycin and were cut into approximately 1-mm fragments. […]
The image analysis procedures described by Bocci et al., (Cancer Chemotherapy Pharmacology 1999, 43: 205–212), were adopted for the present study. […] The true color image analysis software package KS 300 v.1.2 (Kontron Elektronik GmbH, Eching, Germany) was run for interactive manipulation, quantification of the images and data collection. […] In the fibrin culture of placental vessel explants the mean gray level of the sprouting area was measured and the sprouting index (SI) was defined as: Sprouting index=((sprouting area/mean gray level of sprouting area)/perimeter of explant)×100. Results are expressed as the percentage of sprouting index+/−S.E. versus controls.

Experiment [2] concerns immortalized human microvascular endothelial HMEC-1 cells. The experiment is described as follows: Cytotoxicity assay (cell proliferation). Format: cell-based. The following applies: 10^−6 M (+VEGF 10 ng/mL), 72 hours. The procedure:
The immortalized human microvascular endothelial cell line HMEC-1, characterized by Ades, et al., (Journal of Investigative Dermatology 1992, 99: 683–690), was maintained in Medium 199, supplemented with 10% heat-inactivated fetal bovine serum (FBS), penicillin (50 IU/mL) and hydrocortisone (100 μg/mL). Cells were routinely grown in 75 cm2 gelatin-coated tissue culture flasks and kept in a humidified atmosphere of 5% CO2 at 37° C. Cells were harvested with a solution of 0.25% trypsin-0.03% EDTA when they were in long phase of growth and maintained at the above-described culture conditions for all experiments.
In vitro chemosensitivity testing was performed on single-cell suspensions of HEMC-1 cells (5×10^3 cells/well) plated in 96-well gelatin-coated sterile plastic plates and allowed to attach overnight. […] The treatments were scheduled so that each peptide was represented by at least nine wells. At the end of the experiment, cells were rinsed with phosphate buffered saline (PBS), harvested with trypsin/EDTA, and counted with an hemocytometer. Results are expressed as the percentage of cell proliferation versus controls and are the mean of three separate experiments±S.E repeated thrice.

Molecules are shown by their SMILES.

In the case of `Cc1cc(C)c(/C=C2\C(=O)Nc3ccccc32)[nH]1` [SU5416, 3-((2,4-dimethylpyrrol-5-yl)methylidenyl)-2-indolinone], the “sprouting index (SI) as compared to untreated controls” value in experiment [1] was 32.92±9.7%. Also, the cell growth block in experiment [2] was 56.2%.

Values taken from US7084117B2, “Pharmaceutical compositions which inhibit vascular proliferation and method of use thereof” (Societe de Conseils de Recherches et d'Applications …, priority 2001, dated 2006).
